Measured values reported in patent US20150105252A1, “SUBSTITUTED PYRAZOLES AS HERBICIDES” (E I DU PONT DE NEMOURS AND COMPANY, priority 2013, published 2015).

What was measured:
barnyardgrass = assay: Test C preemergence; format: in vivo, Echinochloa crus-galli; conditions: preemergence; for Plant response rating, Barnyardgrass: 125 g ai/ha, scale 0 to 100, 0 = no effect, 100 = complete control
In short: (§1)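 In this greenhouse assay, seeded soil (loam plus sand) or emerged seedlings in peat-vermiculite medium were treated with formulated compound. Roughly two weeks later (13–15 days), each species was scored visually relative to controls, from 0 for no effect to 100 for complete control.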

johnsongrass = assay: Test C postemergence; format: in vivo, Sorghum halepense; conditions: for Plant response rating (scale of 0 to 100 where 0 is no effect and 100 is complete control), Johnsongrass: Postemergence, 31 g ai/ha, visually evaluated after 13 to 15 days; for Johnsongrass plant response rating / Plant response rating, Johnsongrass: postemergence; for Johnsongrass plant response rating: 62 g ai/ha, scale 0 to 100
In short: as §1

velvetleaf [1] = assay: Test C postemergence; format: in vivo, Abutilon theophrasti; conditions: postemergence; for Plant response rating, Velvetleaf: 250 g ai/ha, scale 0 to 100 (0 no effect, 100 complete control); for Velvetleaf plant response rating: scale 0 to 100
In short: as §1

wheat = assay: Test A postemergence; format: in vivo, Triticum aestivum
In short: (§2)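 Seeds were sown in a loam soil–sand blend and given a directed soil spray preemergence; postemergence plants at 2–10 cm, one- to two-leaf stage, were sprayed with compound in non-phytotoxic solvent with surfactant. After about 10 days in a greenhouse, injury was visually rated against untreated controls (0 = no effect, 100 = complete control).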

velvetleaf [2] = assay: Test C preemergence; format: in vivo, Abutilon theophrasti; conditions: preemergence; for Plant response rating, Velvetleaf: 125 g ai/ha, scale 0 to 100, 0 = no effect, 100 = complete control
In short: as §1

morningglory [3] = assay: Test C postemergence; format: in vivo, Ipomoea coccinea; conditions: for Plant response rating (scale of 0 to 100 where 0 is no effect and 100 is complete control), Morningglory: Postemergence, 31 g ai/ha, visually evaluated after 13 to 15 days; for Morningglory plant response rating / Plant response rating, Morningglory: postemergence; for Morningglory plant response rating: 62 g ai/ha, scale 0 to 100
In short: as §1

morningglory [4] = assay: Test A postemergence; format: in vivo, Ipomoea spp.
In short: as §2

velvetleaf [5] = assay: Test A postemergence; format: in vivo, Abutilon theophrasti
In short: as §2

sedge, umbrella = assay: Test B flood; format: in vivo, Cyperus difformis; conditions: 250 g ai/ha, visual rating on 0 to 100 scale (0 no effect, 100 complete control), 13 to 15 days
In short: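 Each compound is applied to the floodwater of pots holding 2-leaf seedlings, water standing 3 cm over the soil throughout. Plants stay in a greenhouse 13 to 15 days before visual scoring against controls from 0 (no effect) to 100 (complete control).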

soybean = assay: Test C preemergence; format: in vivo, Glycine max; conditions: preemergence; for Plant response rating, Soybean: 125 g ai/ha, scale 0 to 100, 0 = no effect, 100 = complete control
In short: as §1

lambsquarters = assay: Test C preemergence; format: in vivo, Chenopodium album; conditions: preemergence; for Plant response rating, Lambsquarters: 125 g ai/ha, scale 0 to 100, 0 = no effect, 100 = complete control
In short: as §1

morningglory [6] = assay: Test C preemergence; format: in vivo, Ipomoea coccinea; conditions: preemergence; for Plant response rating, Morningglory: 125 g ai/ha, scale 0 to 100, 0 = no effect, 100 = complete control
In short: as §1

oat, wild = assay: Test C postemergence; format: in vivo, Avena fatua; conditions: for Plant response rating (scale of 0 to 100 where 0 is no effect and 100 is complete control), Oat, Wild: Postemergence, 31 g ai/ha, visually evaluated after 13 to 15 days; for Oat, Wild plant response rating / Plant response rating, Oat, Wild: postemergence; for Oat, Wild plant response rating: 62 g ai/ha, scale 0 to 100
In short: as §1

chickweed = assay: Test C postemergence; format: in vivo, Stellaria media; conditions: for Plant response rating (scale of 0 to 100 where 0 is no effect and 100 is complete control), Chickweed: Postemergence, 31 g ai/ha, visually evaluated after 13 to 15 days; for Chickweed plant response rating / Plant response rating, Chickweed: postemergence; for Chickweed plant response rating: 62 g ai/ha, scale 0 to 100
In short: as §1

[7] = 31 g ai/ha, visual rating, scale 0 to 100 (0 no effect, 100 complete control), 13 to 15 days
[8] = 62 g ai/ha, scale 0 to 100 (0 no effect, 100 complete control), 13 to 15 days
[9] = 250 g ai/ha, scale 0 to 100, 0 is no effect, 100 is complete control
[10] = 250 g ai/ha, scale 0 to 100 (0 no effect, 100 complete control)
[11] = 125 g ai/ha, scale 0 to 100, 0 no effect, 100 complete control
[12] = Postemergence, 500 g ai/ha, 0 to 100 scale (0 no effect, 100 complete control)
[13] = postemergence, 125 g ai/ha, about 10 days, visual rating on 0 to 100 scale (0 no effect, 100 complete control)

## CCNC(=O)c1cc(CC)n(Cc2cc(C(F)(F)F)nn2C)n1 [Compound 154]
barnyardgrass; [7]
  Barnyardgrass plant response rating: 55
barnyardgrass; [8]
  Barnyardgrass plant response rating: 95
barnyardgrass; 13 to 15 days
  Plant response rating, Barnyardgrass: 100
barnyardgrass; [9]
  Barnyardgrass plant response rating: 100
johnsongrass
  Plant response rating (scale of 0 to 100 where 0 is no effect and 100 is complete control), Johnsongrass: 0
  Johnsongrass plant response rating: 0
johnsongrass; [10]
  Plant response rating, Johnsongrass: 5
johnsongrass; [11]
  Plant response rating, Johnsongrass: 5
Velvetleaf [1]
  Plant response rating, Velvetleaf: 55
  Velvetleaf plant response rating: 25
wheat; [12]
  Wheat plant response rating: 100
wheat; [13]
  Wheat plant response rating: 20
Velvetleaf [2]; [7]
  Velvetleaf plant response rating: 10
Velvetleaf [2]; [8]
  Velvetleaf plant response rating: 40
Velvetleaf [2]; 13 to 15 days
  Plant response rating, Velvetleaf: 90
Velvetleaf [2]; [9]
  Velvetleaf plant response rating: 100
Morningglory [3]
  Plant response rating (scale of 0 to 100 where 0 is no effect and 100 is complete control), Morningglory: 15
  Morningglory plant response rating: 60
Morningglory [3]; [10]
  Plant response rating, Morningglory: 95
Morningglory [3]; [11]
  Plant response rating, Morningglory: 85
Morningglory [4]; [12]
  Morningglory plant response rating: 100
Morningglory [4]; [13]
  Morningglory plant response rating: 100
Velvetleaf [5]; [12]
  Velvetleaf plant response rating: 100
Velvetleaf [5]; [13]
  Velvetleaf plant response rating: 80
sedge, umbrella
  Plant response rating, Sedge, Umbrella: 95
soybean; [7]
  Soybean plant response rating: 35
soybean; [8]
  Soybean plant response rating: 80
soybean; 13 to 15 days
  Plant response rating, Soybean: 95
soybean; [9]
  Soybean plant response rating: 98
lambsquarters; [7]
  Lambsquarters plant response rating: 65
lambsquarters; [8]
  Lambsquarters plant response rating: 98
lambsquarters; 13 to 15 days
  Plant response rating, Lambsquarters: 100
lambsquarters; [9]
  Lambsquarters plant response rating: 98
Morningglory [6]; [7]
  Morningglory plant response rating: 35
Morningglory [6]; [8]
  Morningglory plant response rating: 90
Morningglory [6]; 13 to 15 days
  Plant response rating, Morningglory: 100
Morningglory [6]; [9]
  Morningglory plant response rating: 100
oat, wild
  Plant response rating (scale of 0 to 100 where 0 is no effect and 100 is complete control), Oat, Wild: 5
  Oat, Wild plant response rating: 5
oat, wild; [10]
  Plant response rating, Oat, Wild: 25
oat, wild; [11]
  Plant response rating, Oat, Wild: 20
chickweed
  Plant response rating (scale of 0 to 100 where 0 is no effect and 100 is complete control), Chickweed: 60
  Chickweed plant response rating: 70
chickweed; [10]
  Plant response rating, Chickweed: 90
chickweed; [11]
  Plant response rating, Chickweed: 60

## CCCNC(=O)c1cc(CCF)n(Cc2ccnc(C(F)(F)F)c2)n1 [Compound 177]
barnyardgrass; [7]
  Barnyardgrass plant response rating: 65
barnyardgrass; [8]
  Barnyardgrass plant response rating: 100
barnyardgrass; 13 to 15 days
  Plant response rating, Barnyardgrass: 100
barnyardgrass; [9]
  Barnyardgrass plant response rating: 100
johnsongrass
  Plant response rating (scale of 0 to 100 where 0 is no effect and 100 is complete control), Johnsongrass: 0
  Johnsongrass plant response rating: 0
johnsongrass; [10]
  Plant response rating, Johnsongrass: 5
johnsongrass; [11]
  Plant response rating, Johnsongrass: 5
Velvetleaf [1]
  Plant response rating, Velvetleaf: 60
  Velvetleaf plant response rating: 45
wheat; [12]
  Wheat plant response rating: 100
wheat; [13]
  Wheat plant response rating: 50
Velvetleaf [2]; [7]
  Velvetleaf plant response rating: 0
Velvetleaf [2]; [8]
  Velvetleaf plant response rating: 35
Velvetleaf [2]; 13 to 15 days
  Plant response rating, Velvetleaf: 50
Velvetleaf [2]; [9]
  Velvetleaf plant response rating: 100
Morningglory [3]
  Plant response rating (scale of 0 to 100 where 0 is no effect and 100 is complete control), Morningglory: 60
  Morningglory plant response rating: 40
Morningglory [3]; [10]
  Plant response rating, Morningglory: 80
Morningglory [3]; [11]
  Plant response rating, Morningglory: 85
Morningglory [4]; [12]
  Morningglory plant response rating: 100
Morningglory [4]; [13]
  Morningglory plant response rating: 100
Velvetleaf [5]; [12]
  Velvetleaf plant response rating: 100
Velvetleaf [5]; [13]
  Velvetleaf plant response rating: 40
sedge, umbrella
  Plant response rating, Sedge, Umbrella: 95
soybean; [7]
  Soybean plant response rating: 40
soybean; [8]
  Soybean plant response rating: 70
soybean; 13 to 15 days
  Plant response rating, Soybean: 95
soybean; [9]
  Soybean plant response rating: 98
lambsquarters; [7]
  Lambsquarters plant response rating: 85
lambsquarters; [8]
  Lambsquarters plant response rating: 98
lambsquarters; 13 to 15 days
  Plant response rating, Lambsquarters: 98
lambsquarters; [9]
  Lambsquarters plant response rating: 98
Morningglory [6]; [7]
  Morningglory plant response rating: 25
Morningglory [6]; [8]
  Morningglory plant response rating: 95
Morningglory [6]; 13 to 15 days
  Plant response rating, Morningglory: 100
Morningglory [6]; [9]
  Morningglory plant response rating: 100
oat, wild
  Plant response rating (scale of 0 to 100 where 0 is no effect and 100 is complete control), Oat, Wild: 5
  Oat, Wild plant response rating: 5
oat, wild; [10]
  Plant response rating, Oat, Wild: 40
oat, wild; [11]
  Plant response rating, Oat, Wild: 15
chickweed
  Plant response rating (scale of 0 to 100 where 0 is no effect and 100 is complete control), Chickweed: 60
  Chickweed plant response rating: 75
chickweed; [10]
  Plant response rating, Chickweed: 90
chickweed; [11]
  Plant response rating, Chickweed: 70
